The values that follow come from US6417202B1, “Pyridylpyrrole compounds useful as interleukin-and TNF antagonists” (Pfizer Inc., priority 1996, dated 2002).

Bounds are passed on as bounds.

One may read the melting point as the temperature, or range, at which the solid turns liquid.

In turn, `CCC(=O)c1c(-c2ccncc2)[nH]c(-c2ccncc2)c1CC` [Example 3, 4-Ethyl-3-propanoyl-2,5-di(4-pyridyl)-1H-pyrrole] yielded a melting point of 209 to 211 °C. As for `CC(=O)c1c(-c2ccncc2)[nH]c(-c2ccncc2)c1C(F)(F)F` [Example 4, 3-Acetyl-2,5-di(4-pyridyl)-4-trifluoromethyl-1H-pyrrole], the figure is 250 to 255 °C; as for `CCC(=O)c1c(-c2ccncc2)[nH]c(-c2ccncc2)c1C` [Example 5, 4-Methyl-3-propanoyl-2,5-di(4-pyridyl)-1H-pyrrole], 237 to 238 °C; as for `CCCCC(=O)c1c(-c2ccncc2)[nH]c(-c2ccncc2)c1C` [Example 6, 4-Methyl-2,5-di(4-pyridyl)-3-pentanoyl-1H-pyrrole], 88 to 89 °C. Regarding `CC(=O)c1c(-c2ccncc2)[nH]c(-c2ccncc2)c1-c1ccccc1` [Example 7, 3-Acetyl-4-phenyl-2,5-di(4-pyridyl)-1H-pyrrole], the melting point is 208 to 210 °C. Molecule `CC(=O)c1c(-c2ccnc3ccccc23)[nH]c(-c2ccnc3ccccc23)c1C` [Example 8, 3-Acetyl-4-methyl-2,5-di(4-quinolyl)-1H-pyrrole] came in with a melting point greater than 260 °C. With `CC(=O)c1c(-c2ccncc2)[nH]c(-c2ccnc3ccccc23)c1C` [Example 9, 3-Acetyl-4-methyl-2-(4-pyridyl)-5-(4-quinolyl)-1H-pyrrole] the figure was 237 to 239 °C; with `CCOC(=O)c1c(-c2ccncc2)[nH]c(-c2ccncc2)c1CC` [Example 10, 3-Ethoxycarbonyl-4-ethyl-2,5-di(4-pyridyl)-1H-pyrrole], 212 to 215 °C. As for `CCOC(=O)c1c(-c2ccncc2)[nH]c(-c2ccncc2)c1C` [Example 11, 3-Ethoxycarbonyl-4-methyl-2,5-di(4-pyridyl)-1H-pyrrole], the figure is 206 to 208 °C; as for `Cc1c(-c2ccncc2)[nH]c(-c2ccncc2)c1C(=O)OCc1ccccc1` [Example 13, 3-Benzyloxycarbonyl-4-methyl-2,5-di(4-pyridyl)-1H-pyrrole], 204 to 205 °C. As for `C=CCOC(=O)c1c(-c2ccncc2)[nH]c(-c2ccncc2)c1C` [Example 14, 3-Allyloxycarbonyl-4-methyl-2,5-di(4-pyridyl)-1H-pyrrole], the figure is 224 to 224.5 °C; as for `Cc1c(-c2ccncc2)[nH]c(-c2ccncc2)c1C(=O)OC(C)C` [Example 15, 4-Methyl-3-(1-methylethoxy)carbonyl-2,5-di(4-pyridyl)-1H-pyrrole], 218 to 221 °C; as for `Cc1c(-c2ccncc2)[nH]c(-c2ccncc2)c1C(=O)OC(C)(C)C` [Example 16, 4-Methyl-3-(1,1-dimethylethoxy)carbonyl-2,5-di(4-pyridyl)-1H-pyrrole], 265 to 267 °C. In turn, `CCCOC(=O)c1c(-c2ccncc2)[nH]c(-c2ccncc2)c1C` [Example 17, 4-Methyl-3-propoxycarbonyl-2,5-di(4-pyridyl)-1H-pyrrole] displayed a melting point of 215 to 218 °C. `CCOC(=O)c1c(-c2ccncc2)[nH]c(-c2ccncc2)c1-c1ccccc1` [Example 18, 3-Ethoxycarbonyl-4-phenyl-2,5-di(4-pyridyl)-1H-pyrrole] returned a melting point of 99 to 100 °C. For the molecule `CCCCOC(=O)c1c(-c2ccncc2)[nH]c(-c2ccncc2)c1C` [Example 19, 3-Butoxycarbonyl-4-methyl-2,5-di(4-pyridyl)-1H-pyrrole], the melting point was 182 to 186 °C. As for `COCCOC(=O)c1c(-c2ccncc2)[nH]c(-c2ccncc2)c1C` [Example 20, 3-(2-Methoxyethoxy)carbonyl-4-methyl-2,5-di(4-pyridyl)-1H-pyrrole], the figure is 174 to 177 °C; as for `COCc1c(-c2ccncc2)[nH]c(-c2ccncc2)c1C(=O)OC` [Example 24, 3-Methoxycarbonyl-4-methoxymethyl-2,5-di(4-pyridyl)-1H-pyrrole], 97 to 99 °C. `CCOC(=O)c1c(-c2ccncc2)[nH]c(-c2ccncc2)c1-c1ccc([N+](=O)[O-])cc1` [Example 25, 3-Ethoxycarbonyl-4-(4-nitrophenyl)-2,5-di(4-pyridyl)-1H-pyrrole]: the melting point fell in the range of 274 to 276 °C.

The molecule `Cc1c(-c2ccncc2)[nH]c(-c2ccncc2)c1C=O` [Example 26, 3-Formyl-4-methyl-2,5-di(4-pyridyl)-1H-pyrrole] returned a melting point of 278 to 280 °C.

`Cc1c(-c2ccncc2)[nH]c(-c2ccncc2)c1S(C)(=O)=O` [Example 27, 3-Metha nesulfonyl-4-methyl-2,5-di(4-pyridyl)-1H-pyrrole] gave a melting point of 232 to 234 °C.

`CCc1c(-c2ccncc2)[nH]c(-c2ccncc2)c1C(C)=O` [Example 28, 3-Acetyl-4-ethyl-2,5-di(4-pyridyl)-1H-pyrrole] came in with a melting point of 241 to 243 °C. Take `CCCc1c(-c2ccncc2)[nH]c(-c2ccncc2)c1C(C)=O` [Example 29, 3-Acetyl-4-propyl-2,5-di(4-pyridyl)-1H-pyrrole]: the melting point was 111 to 113 °C. In turn, `CCCCc1c(-c2ccncc2)[nH]c(-c2ccncc2)c1C(C)=O` [Example 31, 3-Acetyl-4-butyl-2,5-di(4-pyridyl)-1H-pyrrole] had a melting point of 93 to 95 °C. As for `CC(=O)c1c(-c2ccncc2)[nH]c(-c2ccncc2)c1CO` [Example 33, 3-Acetyl-4-hydroxymethyl-2,5-di(4-pyridyl)-1H-pyrrole], the figure is 205 to 207 °C; as for `Cc1c(-c2ccncc2)[nH]c(-c2ccncc2)c1CO` [Example 39, 3-Hydroxymethyl-4-methyl-2,5-di(4-pyridyl)-1H-pyrrole], 258 to 261 °C. With `Cc1c(-c2ccncc2)[nH]c(-c2ccncc2)c1C(N)=O` [Example 40, 3-Aminocarbonyl-4-methyl-2,5-di(4-pyridyl)-1H-pyrrole] the figure was 212 to 215 °C; with `CC(=O)c1c(C)[nH]c(-c2ccncc2)c1-c1ccncc1` [Example 42, 3-Acetyl-2-methyl-4,5-di(4-pyridyl)1H-pyrrole], 236 to 239 °C. Molecule `CC(=O)c1cc(-c2ccncc2)[nH]c1C` [Example 43, 3-Acetyl-2-methyl-5-(4-pyridyl)-1H-pyrrole] had a melting point of 236 to 237 °C. Turning to `CC(=O)c1c(-c2ccccc2)[nH]c(-c2ccncc2)c1C` [Example 46, 3-Acetyl-4-methyl-2-phenyl-5-(4-pyridyl)-1H-pyrrole], the melting point was 202 to 203 °C.

In turn, `CC(=O)c1c(-c2ccncc2)[nH]c(-c2ccccc2)c1C` [Example 47, 3-Acetyl-4-methyl-5-phenyl-2-(4-pyridyl)-1H-pyrrole] showed a melting point of 208 to 209 °C. With `CC(=O)c1c[nH]c(-c2ccncc2)c1C` [Example 48, 3-Acetyl-4-methyl-5-(4-pyridyl)-1H-pyrrole] the figure was 210 to 211 °C. As for `Cc1c(-c2ccncc2)[nH]c2c1C(=O)CCC2` [Example 49, 3-Methyl-4-oxo-2-(4-pyridyl)-4,5,6,7-tetrahydro-1H-indole], the figure is 248 to 249 °C. For `CC(=O)c1c(-c2ccc(F)cc2)[nH]c(-c2ccncc2)c1C` [Example 51, 3-Acetyl-2-(4-fluorophenyl)4-methyl-5-(4-pyridyl)-1H-pyrrole], the melting point lay in the range of 202 to 203 °C. With `CC(=O)c1c(-c2cccs2)[nH]c(-c2ccncc2)c1C` [Example 52, 3-Acetyl-4-methyl-5-(4-pyridyl)-2-(2-thienyl)-1H-pyrrole] the figure was 231 to 232 °C; with `O=C1CCCc2c(-c3ccncc3)[nH]c(-c3ccccc3)c21` [Example 53, 4-Oxo-3-phenyl-1-(4-pyridyl)-4,5,6,7-tetrahydroisoindole], 259 to 260 °C.

`O=C1CCCc2c(-c3ccccc3)[nH]c(-c3ccncc3)c21` [Example 54, 7-Oxo-3-phenyl-1-(4-pyridyl)-4,5,6,7-tetrahydroisoindole] had a melting point of 254 to 255 °C. As for `Cc1c(-c2ccncc2)[nH]c2c1C(=O)CC(C)(C)C2` [Example 55, 4-Oxo-2-(4-pyridyl)-3,6,6-trimethyl-4,5,6,7-tetrahydro-1H-indole], the figure is 241 to 241.5 °C.

With `Cc1c(-c2ccncc2)[nH]c2c1C(=O)CC(c1ccccc1)C2` (stereo not shown) [Example 56, 3-Methyl-4-oxo-6-phenyl-2-(4-pyridyl)-4,5,6,7-tetrahydro-1H-indole], the melting point fell in the range of 256 to 257 °C. As for `CC(=O)c1c(-c2cccc(N)c2)[nH]c(-c2ccncc2)c1C` [Example 58, 3-Acetyl-2-(3-aminophenyl)-4-methyl-5-(4-pyridyl)-1H-pyrrole], the figure is 193 to 195 °C. `CC(=O)c1c(-c2ccc3ccccc3c2)[nH]c(-c2ccncc2)c1C` [Example 59, 3-Acetyl-4-methyl-2-(2-naphthyl)-5-(4-pyridyl)-1H-pyrrole] came in with a melting point of 116 to 123 °C.

For the molecule `CC(=O)c1c(-c2ccc(C=O)cc2)[nH]c(-c2ccncc2)c1C` [Example 60, 3-Acetyl-2-(4-formylphenyl)-4-methyl-5-(4-pyridyl)-1H-pyrrole], the melting point was 97 to 100 °C.

Molecule `CC(=O)c1c(-c2cccc3ccccc23)[nH]c(-c2ccncc2)c1C` [Example 61, 3-Acetyl-4-methyl-2-(1-naphthyl)-5-(4-pyridyl)-1H-pyrrole] returned a melting point of 218 to 220 °C.

`CC(=O)c1c(-c2cccc(Oc3ccc(F)cc3)c2)[nH]c(-c2ccncc2)c1C` [Example 62, 3-Acetyl-2-{3-(4-fluorophenoxy)phenyl}-4-methyl-5-(4-pyridyl)-1H-pyrrole] came in with a melting point of 158 to 159 °C. Molecule `CC(=O)c1c(-c2cccc([N+](=O)[O-])c2)[nH]c(-c2ccncc2)c1C` [Example 64, 3-Acetyl-4-methyl-2-(3-nitrophenyl)-5-(4-pyridyl)-1H-pyrrole] yielded a melting point of 214 to 217 °C.

Molecule `CC(=O)c1c(-c2cccnc2)[nH]c(-c2ccncc2)c1C` [Example 65, 3-Acetyl-4-methyl-2-(3-pyridyl)-5-(4-pyridyl)-1H-pyrrole] displayed a melting point of 182 to 186 °C.
